From patent publication US7326407B2, “Amine, amide, sulphonamide and carbamate derivatives of benzalmalonic salts and photoprotective cosmetic compositions comprised thereof” (L'Oreal, priority 2003, dated 2008) come the findings set out here.

The data set can be described thus: UV absorption spectrum in water. Particulars: for UV E1% / UV εmax: at λmax. It counts as physicochemical.

Counter-ions that a name gives are not always drawn.

As for `Nc1ccc(C=C(C(=O)O)C(=O)O)cc1` [Example 1, dipiperidinium salt of 2-(4-aminobenzylidene)malonic acid], the “UV λmax” value is 305 nm, the “UV E1%” value worked out at 446 and the UV εmax worked out at 16800 L/mol/cm.

As to `Nc1ccc(C=C(C(=O)O)C(=O)O)cc1` [Example 2, disodium salt of 2-(4-aminobenzylidene)malonic acid], the “UV λmax” value came out at 305 nm, the “UV E1%” value stood at 670 and the UV εmax worked out at 16800 L/mol/cm.

As for `Nc1ccc(C=C(C(=O)O)C(=O)O)cc1` [Example 3, dipotassium salt of 2-(4-aminobenzylidene)malonic acid], the “UV λmax” value is recorded as 306 nm, the “UV E1%” value was found to be 496 and the UV εmax stood at 14000 L/mol/cm.

As for `CC(=O)Nc1ccc(C=C(C(=O)O)C(=O)O)cc1` [Example 4, dipotassium salt of 2-(4-acetamidobenzylidene)malonic acid], the “UV λmax” value was 292 nm, the “UV E1%” value turned out to be 498 and the UV εmax came to 16200 L/mol/cm.

For “dipotassium salt of 2-(4-laurylamidobenzylidene)malonic acid [Example 5]”, the “UV λmax” value is recorded as 292 nm, the “UV E1%” value was 422 and the UV εmax amounted to 14000 L/mol/cm.
